Tested on: P. aeruginosa
Type: cell-based, Pseudomonas aeruginosa

## O=[N+]([O-])[O-].O=[N+]([O-])[O-].O=[N+]([O-])[O-].O=[N+]([O-])[O-].[Th+4] [Th(NO3)4, thorium nitrate]
  lag period of the organism: the lag period of the organism also increased

## O=[N+]([O-])[O-].O=[N+]([O-])[O-].[O]=[U+2]=[O] [uranyl nitrate]
  inhibitory effect on growth: stronger inhibitory effect on growth of the organism than thorium

— patent publication US4780238A (priority 1985, dated 1988)
